Key:
RNF12 SR-motif = RNF12 SR-motif phosphorylation in mESCs by phos-tag immunoblotting; type: cell-based, mouse; conditions: 10 μM, 4 h
From the text: RNF12 4xSA = S212A/S214A/S227A/S229A. (B) Rlim^−^/y mESCs were transfected with the indicated RNF12 constructs and lysates treated with λ-phosphatase and analyzed by phos-tag immunoblotting for RNF12. Unphosphorylated recombinant RNF12 is included as a control. […] RNF12 4xSA is included as an unphosphorylated control. […] (F) Phosphorylated peptides detected by mass spectrometry following in vitro phosphorylation of RNF12 by SRPK1. pS, phospho-serine. (G) Autoradiography of RNF12 WT or S212A/S214A/S227A/S229A (4xSA) following a radioactive kinase reaction with SRPK1, SRPK2, or SRPK3. RNF12 protein is detected by Coomassie staining. (H) Srpk1^+/+ and Srpk1^−/− mESCs were transfected with control or SRPK2 siRNA and RNF12 SR-motif phosphorylation analyzed by phos-tag immunoblotting for RNF12. SRPK2, SRPK1, RNF12, and ERK1/2 levels were determined by immunoblotting. Related to Figure S2; Tables S3 and S4.
All compounds were diluted in DMSO and mESCs treated with 10 μM inhibitor for 4 h prior lysis unless indicated otherwise. […] For proteasome inhibition mESCs were treated with 10 μM MG132 (Sigma Aldrich) for 6 h. All chemicals are listed in the Key Resource Table.
Phos-tag analyses were performed by loading protein samples containing 10 mM MnCl2 in 8% polyacrylamide gels containing 50 μM Phos-tag reagent (MRC-PPU reagents and services) and 0.1 mM MnCl2. After electrophoresis, gels were washed three times for 10 mins in Transfer buffer (48 mM Tris, 39 mM Glycine, 20% Methanol) supplemented with 20 mM EDTA. Proteins were then transferred to Nitrocellulose membranes, blocked and probed with the indicated antibodies. All protein signals were quantified using Image Studio (LI-COR Biosciences) or Image Lab software (Bio-Rad). Primary antibodies are listed in the Key Resource Table. […]
SR-motif phosphorylation of HA-immunoprecipitated RNF12 analysed by phos-tag immunoblotting.
HA-RNF12 levels are shown as a control. Fully phosphorylated (4-P) and unphosphorylated (0-P) RNF12 SR-motif is indicated by open (○) and closed (●) circles respectively.
Data are represented as mean ± S.D. (n=3). (C) RNF12 expressing mESCs were treated with 10 […]
immunoblotting. HA-RNF12 and ERK1/2 levels are shown as a control. (D) RNF12 expressing […]
5 h (+ wash-out). RNF12 phosphorylation was analysed via phos-tag immunoblotting. ERK1/2 levels are shown as a loading control. (E) Multiple Srpk1-/- and Srpk2-/- mESC clones were […]

RNF12 phospho-Ser214 = experiment: RNF12 SR-motif phosphorylation in mESCs, immunoblotting for RNF12 phospho-Ser214 and total RNF12; type: cell-based, mouse; conditions: 10 μM, 4 h
[1] = tested on: Foxp1 exon 16-16b alternative splicing switch; experiment: Foxp1 exon 16-16b incorporation in mESCs by quantitative RT-PCR; type: cell-based, mouse; conditions: 8 h
Experimental: SRSF phosphorylation, SRPK1, SRPK2, and ERK1/2 levels were determined by immunoblotting. Expected positions of SRSFs that are not detected are shown in gray. Quantification of SRSF phosphorylation (Right). Data represented as mean ± SEM (n = 4). […] Neuro 2a is a control for exon 16b exclusion in differentiated cells (Bottom). Data represented as mean ± SEM (n = 3). […] Exon 16 inclusion: (^∗∗∗∗) p < 0.0001, Exon 16b inclusion: (^∗) p = 0.0164, p = 0.0485, and p = 0.0489 (left to right). Ratio exon 16b/16: (^∗∗∗∗) p < 0.0001, (^∗∗∗) p = 0.0003. (C) SRPK substrates predicted using ScanProsite and grouped according to UniProt functions. (D) RNF12 phosphorylation sites detected by mass-spectrometry. LZL, leucine-zipper like; NLS, nuclear localization signal; NES, nuclear export signal; RING, RING E3 ubiquitin ligase catalytic domain. (E) CMGC family kinase copy numbers in mESCs determined by quantitative proteomics and represented using Kinoviewer. (F) CMGC kinase (200 mU) phosphorylation of the RNF12 SR-motif in vitro was determined by immunoblotting for RNF12 phospho-Ser214 and total RNF12. […] Normalized RNF12 Ser214 phosphorylation is shown below. Data represented as mean ± SEM (n = 3). […] RNF12 SR-motif phosphorylation was analyzed by immunoblotting for RNF12 phospho-Ser214 and RNF12. SRPK1 and SRPK2 levels are shown as a loading control, Related to Figure S1; Tables S1 and S2.
Total RNA extraction and reverse transcription was performed as described. Quantitative PCR reactions using SsoFast EvaGreen Supermix (Bio-Rad) were performed in a CFX384 real time PCR system (Bio-Rad). Relative RNA expression was calculated through the ΔΔCt method and normalised to Gapdh expression. Data was analysed in Excel (Microsoft) and statistical analysis performed in GraphPad Prism v7.0c software (GraphPad Software Inc.).

RNF12 4xSA-KI mESCs = experiment: RNF12 localization by immunofluorescence in RNF12 4xSA-KI mESCs; type: cell-based, mouse; conditions: 30 nM, 6 h
Experimental: Figure 3 SRPK Phosphorylation of RNF12 Regulates Nuclear Anchoring and E3 Ubiquitin Ligase Activity (A) RNF12 localization in wild-type knockin (WT-KI), SR-motif phosphorylation site knockin (4xSA-KI), or SR-motif deletion (ΔSR-KI) mESCs was determined by immunofluorescence. Scalebar: 20 μm (Left). Quantification of the Nucleus/cytosol fluorescence intensity ratio (Right). Data represented as mean ± SEM. […] (^∗∗∗∗) p < 0.0001. (B) RNF12 4xSA-KI mESCs were treated with 30 nM leptomycin B for 6 h and RNF12 localization analyzed by immunofluorescence. Scale bar: 20 μm (Top). Quantification of the nucleus/cytosol fluorescence intensity ratio (Bottom). […] (^∗∗∗∗) p < 0.0001. (C) FLAG-tagged SRPK1 and SRPK2 were expressed in mESCs and localization of SRPKs and RNF12 analyzed by immunofluorescence. Scale bar: 20 μm (Left). Quantification of the cytosol/nucleus fluorescence intensity ratio (Right). […] (^∗∗∗∗) p < 0.0001. […] RNF12, REX1 and ERK1/2 were detected by immunoblotting. (^∗) indicates non-specific signal. (E) REX1 levels were analyzed in RNF12 WT-KI, 4xSA-KI, ΔSR-KI, and W576Y-KI mESCs by immunoprecipitation followed by immunoblotting. ERK1/2 levels were detected by immunoblotting. (F) REX1 half-life was determined in RNF12 WT-KI, 4xSA-KI, ΔSR-KI, and W576Y-KI mESCs by immunoblotting. (Top) quantification of HA-REX1 protein levels normalized to ERK1/2 and calculated protein half-life (Bottom). […]

[2] = tested on: Ser-Arg rich splicing factors (SRSF); experiment: SRSF phosphorylation in mESCs, immunoblotting with phosphoepitope SR proteins antibody; type: cell-based, mouse; conditions: 10 μM, 4 h
SRPK1 = SRPK1 (Homo sapiens, UniProt Q96SB4); type: biochemical; conditions: read-out: IC50, inhibition of RNF12 phosphorylation by SRPK1
Experimental: Cells were lysed, and 1.5 mg of protein immunoprecipitated with 2 μg of SRPK1 or SRPK2 antibodies (BD Biosciences). Immunoprecipitates were then washed with lysis buffer supplemented with 500 mM NaCl and half of the sample was resuspended in loading buffer. The remainder was subjected to in vitro phosphorylation assay containing 0.5 μg RNF12 and 2 mM ATP in kinase buffer (50 mM Tris-HCl [pH 7.5], 0.1 mM EGTA, 10 mM MgCl2, 2 mM DTT) and incubated at 30°C for 30 min. […] For radioactive in vitro kinase assays, reactions were supplemented with 1 μCi γ-^32P ATP. Reactions were incubated at 30°C for 30 min in presence or absence of inhibitor as indicated and samples subjected to polyacrylamide electrophoresis and immunoblot or Coomassie blue staining and signal detected via ECL, infrared detection or autoradiography.
Supplemental Figure Legends
(Related to Figure 1). (A) Wild-type (WT) mESCs were analysed for protein copy number by absolute quantitative proteomics. […]
Data are represented as mean ± S.E.M. (n=3). […] ND = not detected. (B) Inhibition of RNF12 phosphorylation in vitro by SRPK1 and SRPK2 in the presence of varying concentrations of the indicated SRPK inhibitors was determined by immunoblotting for RNF12 phospho-Ser214 (Left). […] Immunoblots were quantified to generate SRPK inhibitor dose-response curves for inhibition of RNF12 phosphorylation by SRPK1 and SRPK2 in vitro (Right). […]

SRPK1, sequence (Q96SB4 whole entry): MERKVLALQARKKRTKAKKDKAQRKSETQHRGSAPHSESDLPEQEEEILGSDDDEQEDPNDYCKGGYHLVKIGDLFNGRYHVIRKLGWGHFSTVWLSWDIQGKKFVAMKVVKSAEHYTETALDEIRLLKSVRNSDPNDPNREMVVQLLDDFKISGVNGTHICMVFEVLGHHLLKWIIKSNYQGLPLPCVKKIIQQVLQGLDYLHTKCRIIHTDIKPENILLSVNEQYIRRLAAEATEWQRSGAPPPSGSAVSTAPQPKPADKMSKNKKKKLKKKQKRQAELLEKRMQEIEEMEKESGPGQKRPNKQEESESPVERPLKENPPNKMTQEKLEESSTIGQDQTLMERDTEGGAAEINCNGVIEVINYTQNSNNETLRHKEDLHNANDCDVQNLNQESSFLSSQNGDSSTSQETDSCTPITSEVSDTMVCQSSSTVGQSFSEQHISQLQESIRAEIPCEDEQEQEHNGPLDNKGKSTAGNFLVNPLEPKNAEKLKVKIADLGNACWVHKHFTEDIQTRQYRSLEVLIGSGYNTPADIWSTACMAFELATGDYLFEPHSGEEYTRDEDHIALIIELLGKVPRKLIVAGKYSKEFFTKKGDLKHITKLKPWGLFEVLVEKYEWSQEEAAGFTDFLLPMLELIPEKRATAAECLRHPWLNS

Structure (SMILES)	RNF12 SR-motif phosphorylation (phos-tag) (RNF12 SR-motif)	RNF12 phospho-Ser214/total ratio (RNF12 phospho-Ser214)	also measured
O=C1NC(=NCc2cccs2)S/C1=C\c1ccc2ncccc2c1 [RO-3306]	little impact	some effect	
CN1CC[C@H](c2c(O)cc(O)c3c(=O)cc(-c4ccccc4Cl)oc23)[C@H](O)C1 [flavopiridol]	little impact	some effect	
O=C(Nc1cc(C(F)(F)F)ccc1N1CCN(Cc2ccccn2)CC1)c1ccc(-c2ccncc2)o1 [SPHINX31]	minor effect		
COc1ccc2c(C)nc(Nc3nc(C)c(C)c(=O)[nH]3)nc2c1 [Madrasin]			Foxp1 exon 16b-exon 16 inclusion ([1]; 10 μM): promotes inclusion of exon 16b over exon 16
CCC(=C/[C@H](C)C/C=C/C(C)=C/[C@@H](C)C(=O)[C@@H](C)[C@H](O)[C@@H](C)C/C(C)=C/C(=O)O)/C=C/[C@@H]1OC(=O)C=C[C@@H]1C [leptomycin B]			RNF12 4xSA localization (RNF12 4xSA-KI mESCs): primarily nuclear; nucleus/cytosol ratio of RNF12 4xSA (fluorescence intensity, mean) (RNF12 4xSA-KI mESCs): 4.08
CN1CCN(C(=O)C(C)(C)c2ccc(C(=O)Nc3cn4cc(-c5ccncc5)ccc4n3)cc2)CC1 [CLK-IN-T3]	minor effect	little impact	SRSF phosphorylation [2]: widespread, robust inhibition; Foxp1 exon 16b-exon 16 inclusion ([1]; 1 μM): promotes exon 16b inclusion while suppressing inclusion of exon 16
O=C(Nc1cc(C(F)(F)F)ccc1N1CCCCC1)c1ccncc1 [SRPIN340]			IC50 (SRPK1): 4.7 µM

Source: publication PMC7725506, “Functional Diversification of SRSF Protein Kinase to Control Ubiquitin-Dependent Neurodevelopmental Signaling” (Developmental Cell, 2020)
